Reference: PubChem BioAssay (NCI)
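Cells were grown in 96-well plates and exposed to each compound for 48 hours at five concentrations; endpoints were interpolated linearly between bracketing concentrations, or set to the highest concentration if not reached. The concentration for 50% growth inhibition is given as GI50. TGI denotes the concentration required for complete inhibition of growth.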

Legend:
Assay in all cases: NCI-60 cell line screen, 48 h
M14 melanoma = system: M14 melanoma
OVCAR-5 ovarian = system: OVCAR-5 ovarian
UACC-257 melanoma = system: UACC-257 melanoma
NCI-H23 lung = system: NCI-H23 lung
EKVX NSCLC = system: EKVX NSCLC
HCT-116 colon = system: HCT-116 colon
SF-268 CNS = system: SF-268 CNS
SK-OV-3 ovarian = system: SK-OV-3 ovarian
OVCAR-3 ovarian = system: OVCAR-3 ovarian
MOLT-4 leukemia = system: MOLT-4 leukemia
RPMI-8226 leukemia = system: RPMI-8226 leukemia
HL-60(TB) leukemia = system: HL-60(TB) leukemia
SR leukemia = system: SR leukemia
NCI-H522 lung = system: NCI-H522 lung
SF-295 CNS = system: SF-295 CNS
MDA-MB-231 breast = system: MDA-MB-231 breast
SNB-75 CNS = system: SNB-75 CNS
SW-620 colon = system: SW-620 colon
UACC-62 melanoma = system: UACC-62 melanoma
TK-10 renal = system: TK-10 renal
CCRF-CEM leukemia = system: CCRF-CEM leukemia
T-47D breast = system: T-47D breast
MDA-MB-435 = system: MDA-MB-435
HOP-92 NSCLC = system: HOP-92 NSCLC
OVCAR-4 ovarian = system: OVCAR-4 ovarian
LOX IMVI melanoma = system: LOX IMVI melanoma
HT29 colon = system: HT29 colon
MALME-3M melanoma = system: MALME-3M melanoma
CAKI-1 renal = system: CAKI-1 renal
HCT-15 colon = system: HCT-15 colon
DU-145 prostate = system: DU-145 prostate
IGROV1 ovarian = system: IGROV1 ovarian
SK-MEL-2 melanoma = system: SK-MEL-2 melanoma
NCI-H460 lung = system: NCI-H460 lung
U251 CNS = system: U251 CNS
ACHN renal = system: ACHN renal
MCF7 breast = system: MCF7 breast
KM12 colon = system: KM12 colon
PC-3 prostate = system: PC-3 prostate
SK-MEL-5 melanoma = system: SK-MEL-5 melanoma
RXF 393 renal = system: RXF 393 renal
HS 578T breast = system: HS 578T breast
A549 NSCLC = system: A549 NSCLC
HCC-2998 colon = system: HCC-2998 colon
K-562 leukemia = system: K-562 leukemia
SK-MEL-28 melanoma = system: SK-MEL-28 melanoma
COLO 205 colon = system: COLO 205 colon
A498 renal = system: A498 renal
BT-549 breast = system: BT-549 breast
SN12C renal = system: SN12C renal
SNB-19 CNS = system: SNB-19 CNS
NCI-H226 lung = system: NCI-H226 lung
786-0 renal = system: 786-0 renal
NCI/ADR-RES ovarian = system: NCI/ADR-RES ovarian
UO-31 renal = system: UO-31 renal
HOP-62 NSCLC = system: HOP-62 NSCLC
OVCAR-8 ovarian = system: OVCAR-8 ovarian
SF-539 CNS = system: SF-539 CNS

Compound: CNC(=O)c1cc(Oc2ccc3nc(NC(=O)c4cc(C(F)(F)F)cc(C(F)(F)F)c4)sc3c2)ccn1
- GI50 (M14 melanoma): 3.61 µM
- TGI (M14 melanoma): 19.4 µM
- GI50 (OVCAR-5 ovarian): 4.23 µM
- TGI (OVCAR-5 ovarian): 25 µM
- GI50 (UACC-257 melanoma): 2.89 µM
- TGI (UACC-257 melanoma): 8.12 µM
- GI50 (NCI-H23 lung): 3.37 µM
- TGI (NCI-H23 lung): 17.7 µM
- GI50 (EKVX NSCLC): 3.43 µM
- TGI (EKVX NSCLC): 23.3 µM
- GI50 (HCT-116 colon): 3.41 µM
- TGI (HCT-116 colon): 11.9 µM
- GI50 (SF-268 CNS): 2.66 µM
- TGI (SF-268 CNS): 17 µM
- GI50 (SK-OV-3 ovarian): 2.52 µM
- TGI (SK-OV-3 ovarian): 7.98 µM
- GI50 (OVCAR-3 ovarian): 2.32 µM
- TGI (OVCAR-3 ovarian): 6.64 µM
- GI50 (MOLT-4 leukemia): 2.62 µM
- TGI (MOLT-4 leukemia): 12.4 µM
- GI50 (RPMI-8226 leukemia): 2.42 µM
- TGI (RPMI-8226 leukemia): > 100 µM
- GI50 (HL-60(TB) leukemia): 2.49 µM
- TGI (HL-60(TB) leukemia): 5.11 µM
- GI50 (SR leukemia): 3.37 µM
- TGI (SR leukemia): 15 µM
- GI50 (NCI-H522 lung): 2.82 µM
- TGI (NCI-H522 lung): 8.77 µM
- GI50 (SF-295 CNS): 2.56 µM
- TGI (SF-295 CNS): 10.5 µM
- GI50 (MDA-MB-231 breast): 2.88 µM
- TGI (MDA-MB-231 breast): 6.63 µM
- GI50 (SNB-75 CNS): 3.13 µM
- TGI (SNB-75 CNS): 14.8 µM
- GI50 (SW-620 colon): 7.56 µM
- TGI (SW-620 colon): 63.8 µM
- GI50 (UACC-62 melanoma): 2.71 µM
- TGI (UACC-62 melanoma): 12.1 µM
- GI50 (TK-10 renal): 3.37 µM
- TGI (TK-10 renal): 13.3 µM
- GI50 (CCRF-CEM leukemia): 3.47 µM
- TGI (CCRF-CEM leukemia): > 100 µM
- GI50 (T-47D breast): 3.04 µM
- TGI (T-47D breast): 9.17 µM
- GI50 (MDA-MB-435): 3.28 µM
- TGI (MDA-MB-435): 20.4 µM
- GI50 (HOP-92 NSCLC): 1.68 µM
- TGI (HOP-92 NSCLC): 7.21 µM
- GI50 (OVCAR-4 ovarian): 3.12 µM
- TGI (OVCAR-4 ovarian): 27.2 µM
- GI50 (LOX IMVI melanoma): 3.39 µM
- TGI (LOX IMVI melanoma): 15.1 µM
- GI50 (HT29 colon): 3.85 µM
- TGI (HT29 colon): 16.8 µM
- GI50 (MALME-3M melanoma): 2.03 µM
- TGI (MALME-3M melanoma): 6.65 µM
- GI50 (CAKI-1 renal): 2.75 µM
- TGI (CAKI-1 renal): 10.7 µM
- GI50 (HCT-15 colon): 3.97 µM
- TGI (HCT-15 colon): 25.1 µM
- GI50 (DU-145 prostate): 3.69 µM
- TGI (DU-145 prostate): 15.9 µM
- GI50 (IGROV1 ovarian): 4.26 µM
- TGI (IGROV1 ovarian): 27 µM
- GI50 (SK-MEL-2 melanoma): 2.32 µM
- TGI (SK-MEL-2 melanoma): 6.7 µM
- GI50 (NCI-H460 lung): 3.83 µM
- TGI (NCI-H460 lung): 14.6 µM
- GI50 (U251 CNS): 3.65 µM
- TGI (U251 CNS): 13.7 µM
- GI50 (ACHN renal): 3.26 µM
- TGI (ACHN renal): 11.8 µM
- GI50 (MCF7 breast): 3.37 µM
- TGI (MCF7 breast): 18 µM
- GI50 (KM12 colon): 2.7 µM
- TGI (KM12 colon): 11 µM
- GI50 (PC-3 prostate): 2.53 µM
- TGI (PC-3 prostate): 12.8 µM
- GI50 (SK-MEL-5 melanoma): 1.68 µM
- TGI (SK-MEL-5 melanoma): 3.63 µM
- GI50 (RXF 393 renal): 2.79 µM
- TGI (RXF 393 renal): 8.37 µM
- GI50 (HS 578T breast): 3.15 µM
- TGI (HS 578T breast): 13.3 µM
- GI50 (A549 NSCLC): 3.99 µM
- TGI (A549 NSCLC): 14.6 µM
- GI50 (HCC-2998 colon): 6.63 µM
- TGI (HCC-2998 colon): 24.7 µM
- GI50 (K-562 leukemia): 3.53 µM
- TGI (K-562 leukemia): > 100 µM
- GI50 (SK-MEL-28 melanoma): 3.76 µM
- TGI (SK-MEL-28 melanoma): 43.7 µM
- GI50 (COLO 205 colon): 2.82 µM
- TGI (COLO 205 colon): 8.21 µM
- GI50 (A498 renal): 1.45 µM
- TGI (A498 renal): 4.51 µM
- GI50 (BT-549 breast): 3.05 µM
- TGI (BT-549 breast): 12.4 µM
- GI50 (SN12C renal): 3.22 µM
- TGI (SN12C renal): 12.5 µM
- GI50 (SNB-19 CNS): 3.76 µM
- TGI (SNB-19 CNS): 22.8 µM
- GI50 (NCI-H226 lung): 4.15 µM
- TGI (NCI-H226 lung): 17.4 µM
- GI50 (786-0 renal): 2.55 µM
- TGI (786-0 renal): 8.07 µM
- GI50 (NCI/ADR-RES ovarian): 3.67 µM
- TGI (NCI/ADR-RES ovarian): 19.1 µM
- GI50 (UO-31 renal): 2.19 µM
- TGI (UO-31 renal): 8.95 µM
- GI50 (HOP-62 NSCLC): 3.36 µM
- TGI (HOP-62 NSCLC): 10.8 µM
- GI50 (OVCAR-8 ovarian): 3.06 µM
- TGI (OVCAR-8 ovarian): 13 µM
- GI50 (SF-539 CNS): 3.14 µM
- TGI (SF-539 CNS): 14.8 µM

Compound: CC(C)=C1C(=O)C[C@]2(C)C/C=C(\C)CC/C=C(\C)CC[C@@H]12
- TGI (M14 melanoma): 15.8 µM
- TGI (OVCAR-5 ovarian): 32.1 µM
- TGI (UACC-257 melanoma): 25.4 µM
- TGI (NCI-H23 lung): 23.9 µM
- TGI (EKVX NSCLC): 32.5 µM
- TGI (HCT-116 colon): 15.9 µM
- TGI (SF-268 CNS): 18 µM
- TGI (SK-OV-3 ovarian): > 50 µM
- TGI (OVCAR-3 ovarian): 18.1 µM
- TGI (MOLT-4 leukemia): 18.2 µM
- TGI (RPMI-8226 leukemia): 36.9 µM
- TGI (SR leukemia): 28.3 µM
- TGI (NCI-H522 lung): 13.9 µM
- TGI (SF-295 CNS): 31.3 µM
- TGI (MDA-MB-231 breast): 15.4 µM
- TGI (SNB-75 CNS): 20.2 µM
- TGI (SW-620 colon): 17.3 µM
- TGI (UACC-62 melanoma): 15.3 µM
- TGI (TK-10 renal): 22.2 µM
- TGI (CCRF-CEM leukemia): 19.5 µM
- TGI (T-47D breast): > 50 µM
- TGI (MDA-MB-435): 20 µM
- TGI (HOP-92 NSCLC): 19.3 µM
- TGI (OVCAR-4 ovarian): 45.6 µM
- TGI (HT29 colon): 16.4 µM
- TGI (CAKI-1 renal): 15.1 µM
- TGI (HCT-15 colon): 15.4 µM
- TGI (DU-145 prostate): > 50 µM
- TGI (IGROV1 ovarian): 19.4 µM
- TGI (SK-MEL-2 melanoma): 15.8 µM
- TGI (U251 CNS): 14.8 µM
- TGI (ACHN renal): 16.4 µM
- TGI (MCF7 breast): 30.4 µM
- TGI (KM12 colon): 16.1 µM
- TGI (PC-3 prostate): > 50 µM
- TGI (SK-MEL-5 melanoma): 15.5 µM
- TGI (RXF 393 renal): 15.2 µM
- TGI (HS 578T breast): 28 µM
- TGI (A549 NSCLC): > 50 µM
- TGI (HCC-2998 colon): 14.9 µM
- TGI (K-562 leukemia): 13.6 µM
- TGI (SK-MEL-28 melanoma): 15.2 µM
- TGI (COLO 205 colon): 16.6 µM
- TGI (A498 renal): 47.9 µM
- TGI (BT-549 breast): 24.8 µM
- TGI (SN12C renal): 17.3 µM
- TGI (SNB-19 CNS): > 50 µM
- TGI (NCI-H226 lung): 16 µM
- TGI (786-0 renal): 16.7 µM
- TGI (NCI/ADR-RES ovarian): 14.8 µM
- TGI (UO-31 renal): 15.1 µM
- TGI (HOP-62 NSCLC): 18.5 µM
- TGI (OVCAR-8 ovarian): 16 µM
- TGI (SF-539 CNS): 15.8 µM
